Measurements as given in patent US20030096020A1, “Novel herbal composition for the management of bronchial asthma and a process of manufacturing the same” (priority 2001, published 2003).

Tested on: mast cells
Assay: Active anaphylaxis method to evaluate mast cell count
Assay type: in vivo, rat
Conditions: sensitized rats

`C[C@]12C=CC(=O)C=C1CC[C@@H]1[C@@H]2[C@@H](O)C[C@@]2(C)[C@H]1CC[C@]2(O)C(=O)CO` [Standard, Prednisolone] was tested, and the “Degranulation (% mean +/- SEM) of mast cells, 21st day sacrifice, central zone” value (no treatment day 14 to 21, 21st day sacrifice, central zone) was 29.4 ± 7.2 %, the “Degranulation (% mean +/- SEM) of mast cells, 21st day sacrifice, peripheral zone” value (no treatment day 14 to 21, 21st day sacrifice, peripheral zone) was 37.51 ± 8.3 % and the “Degranulation (% mean +/- SEM) of mast cells, 13th day sacrifice, central zone” value (oral treatment day 5 to 13, 13th day sacrifice, central zone) was 8.4 ± 2.0 %. The “Degranulation (% mean +/- SEM) of mast cells, 13th day sacrifice, peripheral zone” value (oral treatment day 5 to 13, 13th day sacrifice, peripheral zone) was 8.7 ± 1.621 %.
